This note sets out measurements from patent US9155691B2, “Composition for reducing skin wrinkles including PDE5 inhibitor” (SK Chemicals Co., Ltd., priority 2010, dated 2015).

In series [1] the test system is Normal human dermal fibroblasts (NHDFs). As to the kind of experiment: Stimulatory effect on collagen production: synthesis rate of procollagen type I (C-peptide EIA, corrected for total protein). To be noted: NHDF, 48 hr, negative control 100.0±0.0%. The class given is cell-based. As to the method: In this example, stimulatory effects of major PDE5 inhibitors on collagen production were investigated in order to determine whether the PDE5 inhibitors are effective in reducing skin wrinkles. Collagen is a very important substance involved in the regulation of wrinkles. Collagen disruption is known to lead to the formation of wrinkles. Collagen production plays an important role in the reduction of wrinkles.
Normal human dermal fibroblasts (NHDFs) were cultured in a complete medium. 400 μl (1×10^5 cells) of the NHDF culture was placed in each well of a 48-well plate and were cultured in an incubator (MCO-20 AIC, Sanyo, Japan) at 37 C.° and 5% CO2 for 24 hr. After completion of culturing, the culture fluid was discarded from the wells. 500 μl of D-phosphate buffered saline (D-PBS) was added to each well for washing. Thereafter, 800 μl of a test substance and 800 μl of a positive control were added to the corresponding wells. 800 μl of a serum-free medium supplemented with DMSO was added to the wells of a negative control. The culture was continued in an incubator at 37 C.° and 5% CO2 for 48 hr. After culturing was completed, the culture fluids were collected from the wells, followed by centrifugation (25 C.°, 3,000 rpm, 10 min). The supernatants were used for the quantification of procollagen type I. After 1 mL of D-PBS was added to each well of the plate, from which the culture fluids had been removed, for washing, 30 μl of a cell lysis buffer (Lot No.: 41, Cell Signaling Technology, U.S.A) was added to each well. The plate was frozen during storage in a deep freezer (DFU-657CL, Operon, Korea) at −70 C.° for 2 hr, and thawed at room temperature. The freeze-thaw procedure was repeated twice to lyse the cells. Each of the cell lysates was collected and centrifuged (Micro 17TR, Hanil Science Industrial, Korea) (4 C.°, 13000 rpm, 30 min). The supernatant was used for total protein quantification.
40 μl of the obtained supernatant was added to each well of a 96-well plate. A standard solution from a BCA protein assay kit (Lot No.: KK140637, Pierce Biotechnology Inc., USA) was diluted stepwise to different concentrations (250, 125, 50, 25, 5 and 0 μg/mL). 40 μl of the dilute solution was added to each well. 160 μl of a reagent mixture from the assay kit was added to each well. Thereafter, the resulting mixtures were allowed to react in an incubator (NB-201V, n-Biotec, Korea) at 60 C.° for 30 min. After completion of the reaction, the absorbance of each well was measured at 562 nm using an ELISA reader (PowerWave XS, BioTek Instruments, Inc., USA). The amounts of total proteins in the wells containing the test substance, the positive control and the negative control were determined by substituting the absorbance value of each well into the standard curve equation.
100 μl of the obtained supernatant was added to each well of a 96-well plate from a procollagen type I C-peptide EIA kit (Lot No.: AB01520C, Takara Bio Inc., Japan). A standard solution from the kit was diluted stepwise to different concentrations (640, 320, 160, 80, 40, 20, 10 and 0 ng/mL). 100 μl of the dilute solution was added to each well. Thereafter, the resulting mixtures were allowed to react in an incubator at 37 C.° for 2 hr. The reaction solution was discarded from each well. The well was washed with 400 μl of PBS (×3). 100 μl of solution 1 from the kit was added to each well. The reaction was carried out at 37 C.° for 1 hr. After completion of the reaction, the reaction solution was discarded from each well and 400 μl of PBS was added to the well for washing (×4). 100 μl of a tetramethylbenzidine (TMBZ) substrate solution from the kit was added to each well. The reaction was carried out at 30 C.° for 15 min. Thereafter, 100 μl of 1 N H2SO4 solution was added to each well to stop the reaction. The absorbance of each well was measured at 450 nm using an ELISA reader. […]

In series [2] the test system is UVB-induced skin wrinkles of hairless mice. As to the kind of experiment: Wrinkle reduction in the skin of UVB-irradiated hairless mice (photographs). The series is classed as in vivo. Here is the method: An examination was made as to whether the PDE5 inhibitors can substantially reduce skin wrinkles of animal models. Hairless mice, aged 7 weeks, were irradiated with UVB (290-320 nm, 312 nm) to induce wrinkles. The compound or the control was applied to each mouse and its influence on the induced wrinkles was evaluated. More specifically, the mice were irradiated with 60 mJ/cm^2 (1 minimal […] dose (MED)) for 3 days weekly during the first and second week after wrinkling, 120 mJ/cm^2 (2 MED) for 3 days during the third week after wrinkling, 180 mJ/cm^2 (3 MED) for 3 days during the fourth week after wrinkling, 240 mJ/cm^2 (4 MED) for 3 days weekly during the fifth to eighth week after wrinkling, and 240 mJ/cm^2 (4 MED) for 5 days weekly during the ninth to fifteenth week after wrinkling. During the sixteenth and seventeenth week after wrinkling, about 0.5 ml of squalene-OOH, an oxidation product of squalene by UV irradiation, was applied once using a brush to induce deeper wrinkles. […]

Where [3] appears, read: 10 mM (about 5%), applied to skin twice daily for 14 days, n=7.

Take `CCCc1nn(C)c2c(=O)[nH]c(-c3cc(S(=O)(=O)N4CCN(C)CC4)ccc3OCC)nc12` [sildenafil]: the “Synthesis rate of procollagen type I” value in series [1] (10 nM, mean of three repeats) was 108.6±8.1%; in series [1] (100 nM, p<0.01) it was 160.7±12.1%. Moreover, in series [2] (setting [3]), the “Skin condition after application” value is “gradually became clean”. Besides, the “Wrinkle reduction (skin photographs)” value in series [2] (setting [3]) is “Wrinkle reduction was observed”.

`CCCc1nc(C)c2c(=O)[nH]c(-c3cc(S(=O)(=O)N4CCN(CC)CC4)ccc3OCC)nn12` [vardenafil]: the “Synthesis rate of procollagen type I” value turned out to be 140.7±7.8% in series [1] (10 nM, mean of three repeats) and 162.7±10.0% in series [1] (100 nM, p<0.01).

With `CC1=C(/C=C/C(C)=C/C=C/C(C)=C/C(=O)O)C(C)(C)CCC1` [retinoic acid], in series [2] (0.05%, applied to skin twice, later once daily, n=6), the “Skin condition after application (cornified layers)” value is “Cornified layers were formed and continuously peeled”.

In the case of `CN1CC(=O)N2[C@H](c3ccc4c(c3)OCO4)c3[nH]c4ccccc4c3C[C@@H]2C1=O` [tadalafil], the “Synthesis rate of procollagen type I” value came out at 147.2±8.1% in series [1] (10 nM, mean of three repeats) and 174.7±10.2% in series [1] (100 nM, p<0.01).
